# In article PMC9330353 (Journal of Fungi, 2022):
# Entries after “also recorded” stand apart in the source; their conditions may differ.
# Key:
# [1] = biological target: T1, Pdr5p (Saccharomyces cerevisiae, UniProt P33302); settings: at 100 μg/mL; cited from earlier work
# T1 construct: AD/124567 cells in the exponential growth phase were harvested by centrifugation; endogenous in cells; host or cells: S. cerevisiae strain AD/124567 (PDR1-3; other MDR ABC transporter genes deleted)
# [2] = tested on: strain AD/124567; test: Disk diffusion chemosensitization assay; assay type: cell-based, Saccharomyces cerevisiae; settings: strain AD/124567, medium with 150 µg/mL fluconazole, 50 μg compound per disk, 48 h
# Method: To evaluate the ability of the compounds in reversing the MDR phenotype of strain AD/124567, a chemosensitization assay was performed, with slight modifications. Briefly, YPD medium containing 150 µg/mL fluconazole was prepared with 1.5% agarose, and a cell suspension from AD/124567 was incorporated into molten medium (45 °C), reaching a final concentration of 2.4 × 10^6 yeasts/mL. Subsequently, 50 μg of each compound was applied to 6-milimeter Whatman 3MM® blotting paper disks (Sigma-Aldrich®, St. Louis, MO, USA), dried at 30 °C for 30 min, and placed on the solidified medium surface. The plates were incubated at 30 °C for 48 h, photographed, and the inhibition zones were measured. A fluconazole-free medium was also used to evaluate the effects of the compounds alone on yeast growth.
# [3] = tested on: strain AD/124567; test: Checkerboard assay with fluconazole, strain AD/124567; assay type: cell-based, Saccharomyces cerevisiae
# Method: (§1) Culture growth was measured using a microplate reader at 600 nm (Fluostar Optima, BMG Labtech, Offenburg, Germany). Growth inhibition was calculated as described in Section 2.3.
# (§2) FICI ≤ 0.5 points to a synergic interaction, whereas 0.5 < FICI < 4.0 and FICI > 4 indicate indifferent and antagonistic interactions, respectively.
# [4] = tested on: fluconazole-resistant Candida albicans strain 95-142; test: Checkerboard assay with fluconazole, strain 95-142; assay type: cell-based; settings: read-out: Fluconazole MIC a (alone)
# Description: (§3) In this study, two S. cerevisiae mutant strains were used. Strain AD/124567 (genotype: MATα, PDR1-3, ura3, his1, Δyor1::hisG, Δsnq2::hisG, Δpdr10::hisG, Δpdr11::hisG, Δycf1::hisG, Δpdr3::hisG) overexpressed Pdr5p, but the genes of all other ABC transporters related to the MDR phenotype (Yor1p, Snq2p, Pdr10p, Pdr11p, and Ycf1p) were deleted. A second strain, AD/1234567, had all MDR related genes deleted, including PDR5 (genotype: MATα, PDR1-3, ura3, his1, Δyor1::hisG, Δsnq2::hisG, Δpdr5::hisG, Δpdr10::hisG, Δpdr11::hisG, Δycf1::hisG, Δpdr3::hisG). Therefore, this strain was highly sensitive to fluconazole. One fluconazole-resistant Candida albicans strain was also used in this study, namely, 95-142. This strain was isolated from the throat of a patient and identified by CHROMagar^TM and PCR. The isolate overexpressed CaCdr1p and CaCdr2p (the most important MDR transporters of C. albicans), and was kindly provided by Dr. Theodore White (University of Missouri, Kansas City, MO, USA).
# as §1, §2
# [5] = biological target: T1, Pdr5p; settings: at 200 μM; cited from earlier work
# [6] = tested on: S. cerevisiae strain AD/124567 (overexpresses Pdr5p); test: Antifungal susceptibility test (microbroth dilution), strain AD/124567; assay type: cell-based, Saccharomyces cerevisiae; settings: tested strains AD/1234567 and AD/124567, up to 100 μM
# Description: as §3
# The antifungal activity of the compounds was evaluated via a microbroth dilution method described by Niimi et al.. […] Culture growth was measured using a microplate reader at 600 nm (Fluostar Optima, BMG Labtech, Offenburg, Germany). […] Growth inhibition was calculated as follows: % Growth inhibition = (Absorbance of growth control − Absorbance of treated sample) × 100/Absorbance of growth control
# [7] = biological target: T1, Pdr5p; test: Rhodamine 6G accumulation/efflux assay; assay type: cell-based; settings: strain AD/124567 in the presence of glucose
# Method: Efflux assays were performed as described by Reis de Sá et al. (2017). Briefly, AD/124567 cells in the exponential growth phase were harvested by centrifugation at 5000 rpm at room temperature for 5 min, and then washed twice with phosphate-buffered saline (PBS) (0.43 g of KH2PO4; 7.2 g of NaCl; 1.85 g of Na2HPO4; pH 7.2; 990 mL of distilled water). Cells were then resuspended in 10 mL of PBS and starved for 2 h at 4 °C. Subsequently, 10^7 cells/mL were incubated for 30 min at 30 °C with 15 μM R6G. After incubation, cells were washed twice with PBS and further incubated in the presence of the compounds, DMSO, and FK-506 (a classical inhibitor of ABC transporters) for 60 min at 30 °C. […] The supernatants were transferred to the wells of a 96-well polystyrene plate, and fluorescence was measured with a plate reader (Fluostar Optima, BMG Labtech, Offenburg, Germany) at 485 nm (excitation) and 538 nm (emission). To evaluate R6G efflux, fluorescence emitted by the dye in the extracellular milieu was measured. Thus, the fluorescence was directly related to extracellular R6G concentration, and then to Pdr5p activity. […] R6G efflux was calculated as follows: (2) % efflux = Fluorescence of treated sample × 100/Fluorescence of AD/124567 with glucose […]
# T1 sequence (P33302 whole entry): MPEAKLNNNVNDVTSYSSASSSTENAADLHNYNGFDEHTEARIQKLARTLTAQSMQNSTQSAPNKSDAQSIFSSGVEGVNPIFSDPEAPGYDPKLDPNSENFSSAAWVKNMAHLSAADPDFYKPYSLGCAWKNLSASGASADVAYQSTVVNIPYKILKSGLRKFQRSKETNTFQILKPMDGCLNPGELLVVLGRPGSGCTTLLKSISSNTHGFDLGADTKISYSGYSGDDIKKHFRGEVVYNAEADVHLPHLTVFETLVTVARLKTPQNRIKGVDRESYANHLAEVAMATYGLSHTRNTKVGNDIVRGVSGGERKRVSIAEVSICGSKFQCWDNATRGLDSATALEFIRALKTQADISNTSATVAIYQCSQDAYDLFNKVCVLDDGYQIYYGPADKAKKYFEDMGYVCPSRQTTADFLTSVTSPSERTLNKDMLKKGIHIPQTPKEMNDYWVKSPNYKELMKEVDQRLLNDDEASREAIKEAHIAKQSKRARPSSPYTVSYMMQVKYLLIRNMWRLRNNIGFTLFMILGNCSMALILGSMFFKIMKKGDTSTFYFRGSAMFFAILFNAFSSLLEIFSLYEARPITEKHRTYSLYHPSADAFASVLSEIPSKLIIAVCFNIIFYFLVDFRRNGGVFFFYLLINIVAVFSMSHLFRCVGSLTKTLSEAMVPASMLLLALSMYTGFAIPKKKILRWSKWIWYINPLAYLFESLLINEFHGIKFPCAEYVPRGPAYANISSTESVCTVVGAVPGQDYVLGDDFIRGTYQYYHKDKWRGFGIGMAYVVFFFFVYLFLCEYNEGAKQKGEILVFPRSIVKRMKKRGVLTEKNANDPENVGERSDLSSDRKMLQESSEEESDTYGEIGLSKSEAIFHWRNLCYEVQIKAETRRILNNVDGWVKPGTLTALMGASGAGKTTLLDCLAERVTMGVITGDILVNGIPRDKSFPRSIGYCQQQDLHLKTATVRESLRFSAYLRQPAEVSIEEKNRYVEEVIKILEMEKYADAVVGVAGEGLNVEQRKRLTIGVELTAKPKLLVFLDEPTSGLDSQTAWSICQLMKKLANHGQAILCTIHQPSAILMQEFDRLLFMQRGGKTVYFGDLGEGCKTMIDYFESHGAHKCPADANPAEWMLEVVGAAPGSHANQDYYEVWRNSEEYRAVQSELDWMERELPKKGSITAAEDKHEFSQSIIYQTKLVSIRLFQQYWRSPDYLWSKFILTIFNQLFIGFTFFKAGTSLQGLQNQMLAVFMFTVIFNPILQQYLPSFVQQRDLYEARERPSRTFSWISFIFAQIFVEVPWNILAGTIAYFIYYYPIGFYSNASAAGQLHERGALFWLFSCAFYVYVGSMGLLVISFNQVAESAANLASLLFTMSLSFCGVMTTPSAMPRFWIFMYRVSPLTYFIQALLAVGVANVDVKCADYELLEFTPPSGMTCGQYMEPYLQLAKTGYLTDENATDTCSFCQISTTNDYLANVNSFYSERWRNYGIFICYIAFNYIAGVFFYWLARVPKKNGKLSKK
compound,measurement,setting,value
CC1(C)CCC2=C(O1)c1ccccc1C(=O)C2=O [Beta-lapachone],Inhibition of Pdr5p activity,[1],79.4%
C=CC[C@@H]1/C=C(\C)C[C@H](C)C[C@H](OC)[C@H]2O[C@@](O)(C(=O)C(=O)N3CCCC[C@H]3C(=O)O[C@H](/C(C)=C/[C@@H]3CC[C@@H](O)[C@H](OC)C3)[C@H](C)[C@@H](O)CC1=O)[C@H](C)C[C@@H]2OC [FK-506],Inhibition zone,[2],18 mm
OC(Cn1cncn1)(Cn1cncn1)c1ccc(F)cc1F [Fluconazole],MIC,"[3]; Saccharomyces cerevisiae, strain AD/124567, 80% growth inhibition, read-out: Fluconazole MIC a (alone)",480 µg/mL
same,MIC,[4],62.5 µg/mL
Nc1ncc(/C=C/CNC(=O)c2cc(Br)c(Br)[nH]2)[nH]1 [Oroidin],Inhibition of R6G efflux,[5],60%
"C[C@H]1O[C@@H](O[C@H]2[C@@H](O)C[C@H](O[C@H]3[C@@H](O)C[C@H](O[C@H]4CC[C@@]5(C)[C@H](CC[C@@H]6[C@@H]5C[C@@H](O)[C@]5(C)[C@@H](C7=CC(=O)OC7)CC[C@]65O)C4)O[C@@H]3C)O[C@@H]2C)C[C@H](O)[C@@H]1O [digoxin, Digoxin]",Interaction with fluconazole (qualitative),"[3]; S. cerevisiae, agar diffusion assay and checkerboard titration",indifferent to interaction with fluconazole
same,Antifungal activity of the compound alone,[6],neither presented antifungal activity
same,Effect on R6G efflux / Pdr5p activity (qualitative),[7],unable to inhibit Pdr5p activity; also recorded: did not affect Pdr5p activity
